This is an account of results in publication PMC5247677 (Scientific Reports, 2017).

Structures are written as SMILES. Where only a bound is given, the exact number is not on record here.

One data set deals with α3 nAChR (Homo sapiens, UniProt P32297). Description: FLIPR calcium responses in SH-SY5Y cells, α3 nAChR. It is filed as cell-based. Conditions: FLIPR Tetra, nicotine 30 μM, 0.1–10 μM, 5 min pre-treatment.
A further data set deals with T1, hNaV1.1 (Homo sapiens, UniProt P35498).
T1 construct: host or cells: HEK293
Description: cell-based. Particulars: whole cell electrophysiology, HEK293; pH 7.4, 0.1% BSA; holding −80 mV, test −20 mV; incubation 5–40 min; mean ± SEM, n = 3–9 cells; read-out: pIC50 at hNaV1.1 (converted).

A further data set has as its target α7 nAChR (Homo sapiens, UniProt P36544). Nature of the data set: FLIPR calcium responses in SH-SY5Y cells, α7 nAChR. It is filed as cell-based. Particulars: FLIPR Tetra, choline with PNU120596, 0.1–10 μM, 5 min pre-treatment.
Another data set has as its target T2, hNaV1.4 (Homo sapiens, UniProt P35499).
T2 construct: host or cells: HEK293
Description: cell-based. Particulars: whole cell electrophysiology, HEK293; pH 7.4, 0.1% BSA; holding −80 mV, test −20 mV; incubation 5–40 min; mean ± SEM, n = 3–9 cells; read-out: pIC50 at hNaV1.4 (converted).

For another data set, the target named is T3, mNaV1.7 (Mus musculus, UniProt Q62205).
T3 construct: host or cells: HEK293
Nature of the data set: Whole-cell patch-clamp (PatchXpress), mNaV1.7. In kind it is cell-based. Conditions: HEK293, pH 7.4, holding −120 mV, 20 ms test pulse 0 mV, mean ± SEM, read-out: pIC50 at mouse NaV1.7 (converted). In general terms: Patch clamp records ionic current or voltage across a cell membrane.

The test system of data set [1] is motor performance in rats. It is filed as in vivo, rat (Sprague Dawley). Here is the method: FCA was administered undiluted in a volume of 150 μL by i.pl injection in rats. Behavioural assessment was performed 3 days post-injection of FCA. For intrathecal administration, a polyethylene lumbar catheter was inserted into the intrathecal space between vertebrae L4–L5. […] Mechanical paw withdrawal thresholds were determined using manual von Frey with a series of calibrated filaments 0.4–15.1 g (Stoelting Co., Wood Dale, USA) using the up-down method. Paw withdrawal latency to a thermal stimulus was determined using the Hargreaves test (Ugo Basile, Camerio VA, Italy). Motor co-ordination was assessed using an accelerating rotarod (Ugo Basile). Latency to fall was recorded in seconds, with a maximal cut off of 300 s. At the completion of experiments, catheter placement was checked by injection of lignocaine (2%, 10 μL) and observation of rapid bilateral hind limb paralysis.

For another data set, the target named is T4, rKV2.1 (Rattus norvegicus, UniProt P15387).
T4 construct: expressed in transfected cells; host or cells: Xenopus laevis oocytes
Description: Two-electrode voltage-clamp in Xenopus oocytes, wild-type rKV2.1. It is filed as cell-based. Particulars: Xenopus laevis oocytes, pH 7.6, 22 °C, 0.1% BSA. Background: In two-electrode clamp one electrode senses voltage and the other passes current.

Another data set addresses T5, hNaV1.2 (Homo sapiens, UniProt Q99250).
T5 construct: host or cells: HEK293
Description: cell-based. Conditions: whole cell electrophysiology, HEK293; pH 7.4, 0.1% BSA; holding −80 mV, test −20 mV; incubation 5–40 min; mean ± SEM, n = 3–9 cells; read-out: pIC50 at hNaV1.2 (converted).

The next data set addresses T6, hNaV1.6 (Homo sapiens, UniProt Q9UQD0).
T6 construct: host or cells: HEK293
Nature of the data set: cell-based. Conditions: whole cell electrophysiology, HEK293; pH 7.4, 0.1% BSA; holding −80 mV, test −20 mV; incubation 5–40 min; mean ± SEM, n = 3–9 cells; read-out: pIC50 at hNaV1.6 (converted).

Another data set has as its target T7, hNaV1.3 (Homo sapiens, UniProt Q9NY46).
T7 construct: host or cells: HEK293
Nature of the data set: cell-based. Conditions: whole cell electrophysiology, HEK293; pH 7.4, 0.1% BSA; holding −80 mV, test −20 mV; incubation 5–40 min; mean ± SEM, n = 3–9 cells; read-out: pIC50 at hNaV1.3 (converted).

For another data set, the target named is T8, hNaV1.8 (Homo sapiens, UniProt Q9Y5Y9).
T8 construct: host or cells: CHO
Nature of the data set: cell-based. Particulars: whole cell patch-clamp.

For a further data set, the target named is T9, hNaV1.9 (Homo sapiens, UniProt Q9UI33).
T9 construct: host or cells: HEK293
Nature of the data set: cell-based. Conditions: PatchXpress, HEK293. From the text:
Data were plotted and analyzed using GraphPad Prism, version 6.0. For concentration-response curves, a four-parameter Hill equation with variable Hill coefficient was fitted to the data. […] Data are presented as mean ± SEM.

For data set [2] the following is noted: precluded chronic testing.
Another data set deals with T10, rNaV1.7 (Rattus norvegicus, UniProt O08562).
T10 construct: expressed in transfected cells; host or cells: HEK293
Nature of the data set: Whole-cell patch-clamp (QPatch-16), rNaV1.7. It is filed as cell-based. Particulars: QPatch-16, HEK293; pH 7.4, 0.1% BSA; holding −80 mV, test −20 mV; mean ± SEM; read-out: pIC50 at rat NaV1.7 (converted).

Another data set has as its target T11, hNaV1.5 (Homo sapiens, UniProt Q14524).
T11 construct: host or cells: HEK293
Nature of the data set: cell-based. Conditions: whole cell electrophysiology, HEK293; pH 7.4, 0.1% BSA; holding −80 mV, test −20 mV; incubation 5–40 min; mean ± SEM, n = 3–9 cells; read-out: pIC50 at hNaV1.5 (converted).

Another data set has as its system NaV1.7. Conditions: 0.3–3 mg/kg i.p., mice. The method, then: For behavioural assessment we used adult male C57BL/6 J mice or Sprague Dawley rats aged 5–8 weeks. Animals were housed in groups of 2–4 per cage, under 12 h light-dark cycles with standard rodent chow and water ad libitum. All assessments were performed by a blinded investigator unaware of the treatment each animal received. Ethical approval for in vivo experiments in animals was obtained from the University of Queensland, University of Sydney or United Kingdom Home Office animal ethics committee. Experiments involving animals were conducted in accordance with the International Association for the Study of Pain Guidelines for the Use of Animals in Research and the Australian Code of Practice for the Care and Use of Animals for Scientific Purposes, 8th edition (2013).

Sequence of α7 nAChR (P36544 23-502): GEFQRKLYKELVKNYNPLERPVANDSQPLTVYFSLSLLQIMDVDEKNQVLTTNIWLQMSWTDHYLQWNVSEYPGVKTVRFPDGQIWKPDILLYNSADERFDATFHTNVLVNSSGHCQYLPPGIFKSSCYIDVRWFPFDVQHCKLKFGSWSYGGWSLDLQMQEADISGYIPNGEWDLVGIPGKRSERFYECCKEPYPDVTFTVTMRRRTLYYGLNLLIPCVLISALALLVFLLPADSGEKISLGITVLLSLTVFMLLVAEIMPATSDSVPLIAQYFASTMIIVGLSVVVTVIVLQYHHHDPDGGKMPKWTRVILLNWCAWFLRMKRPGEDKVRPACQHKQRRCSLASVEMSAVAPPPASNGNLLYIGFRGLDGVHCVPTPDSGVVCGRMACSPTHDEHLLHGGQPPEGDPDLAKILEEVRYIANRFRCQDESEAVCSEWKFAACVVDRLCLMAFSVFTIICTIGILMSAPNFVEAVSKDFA
Sequence of α3 nAChR (P32297 32-505): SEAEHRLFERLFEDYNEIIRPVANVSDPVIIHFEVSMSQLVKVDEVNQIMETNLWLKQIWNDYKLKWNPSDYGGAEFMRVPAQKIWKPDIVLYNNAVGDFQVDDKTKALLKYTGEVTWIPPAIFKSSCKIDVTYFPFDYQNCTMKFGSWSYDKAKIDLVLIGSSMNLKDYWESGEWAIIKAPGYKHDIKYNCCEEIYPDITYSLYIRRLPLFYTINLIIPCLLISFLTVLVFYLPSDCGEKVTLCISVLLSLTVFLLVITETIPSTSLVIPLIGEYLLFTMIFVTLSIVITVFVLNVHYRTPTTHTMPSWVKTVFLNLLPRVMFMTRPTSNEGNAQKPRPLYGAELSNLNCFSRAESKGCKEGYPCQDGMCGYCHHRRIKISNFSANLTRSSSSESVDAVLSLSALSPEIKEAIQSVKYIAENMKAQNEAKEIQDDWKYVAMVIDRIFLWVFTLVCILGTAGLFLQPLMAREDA
T9 sequence (Q9UI33 whole entry): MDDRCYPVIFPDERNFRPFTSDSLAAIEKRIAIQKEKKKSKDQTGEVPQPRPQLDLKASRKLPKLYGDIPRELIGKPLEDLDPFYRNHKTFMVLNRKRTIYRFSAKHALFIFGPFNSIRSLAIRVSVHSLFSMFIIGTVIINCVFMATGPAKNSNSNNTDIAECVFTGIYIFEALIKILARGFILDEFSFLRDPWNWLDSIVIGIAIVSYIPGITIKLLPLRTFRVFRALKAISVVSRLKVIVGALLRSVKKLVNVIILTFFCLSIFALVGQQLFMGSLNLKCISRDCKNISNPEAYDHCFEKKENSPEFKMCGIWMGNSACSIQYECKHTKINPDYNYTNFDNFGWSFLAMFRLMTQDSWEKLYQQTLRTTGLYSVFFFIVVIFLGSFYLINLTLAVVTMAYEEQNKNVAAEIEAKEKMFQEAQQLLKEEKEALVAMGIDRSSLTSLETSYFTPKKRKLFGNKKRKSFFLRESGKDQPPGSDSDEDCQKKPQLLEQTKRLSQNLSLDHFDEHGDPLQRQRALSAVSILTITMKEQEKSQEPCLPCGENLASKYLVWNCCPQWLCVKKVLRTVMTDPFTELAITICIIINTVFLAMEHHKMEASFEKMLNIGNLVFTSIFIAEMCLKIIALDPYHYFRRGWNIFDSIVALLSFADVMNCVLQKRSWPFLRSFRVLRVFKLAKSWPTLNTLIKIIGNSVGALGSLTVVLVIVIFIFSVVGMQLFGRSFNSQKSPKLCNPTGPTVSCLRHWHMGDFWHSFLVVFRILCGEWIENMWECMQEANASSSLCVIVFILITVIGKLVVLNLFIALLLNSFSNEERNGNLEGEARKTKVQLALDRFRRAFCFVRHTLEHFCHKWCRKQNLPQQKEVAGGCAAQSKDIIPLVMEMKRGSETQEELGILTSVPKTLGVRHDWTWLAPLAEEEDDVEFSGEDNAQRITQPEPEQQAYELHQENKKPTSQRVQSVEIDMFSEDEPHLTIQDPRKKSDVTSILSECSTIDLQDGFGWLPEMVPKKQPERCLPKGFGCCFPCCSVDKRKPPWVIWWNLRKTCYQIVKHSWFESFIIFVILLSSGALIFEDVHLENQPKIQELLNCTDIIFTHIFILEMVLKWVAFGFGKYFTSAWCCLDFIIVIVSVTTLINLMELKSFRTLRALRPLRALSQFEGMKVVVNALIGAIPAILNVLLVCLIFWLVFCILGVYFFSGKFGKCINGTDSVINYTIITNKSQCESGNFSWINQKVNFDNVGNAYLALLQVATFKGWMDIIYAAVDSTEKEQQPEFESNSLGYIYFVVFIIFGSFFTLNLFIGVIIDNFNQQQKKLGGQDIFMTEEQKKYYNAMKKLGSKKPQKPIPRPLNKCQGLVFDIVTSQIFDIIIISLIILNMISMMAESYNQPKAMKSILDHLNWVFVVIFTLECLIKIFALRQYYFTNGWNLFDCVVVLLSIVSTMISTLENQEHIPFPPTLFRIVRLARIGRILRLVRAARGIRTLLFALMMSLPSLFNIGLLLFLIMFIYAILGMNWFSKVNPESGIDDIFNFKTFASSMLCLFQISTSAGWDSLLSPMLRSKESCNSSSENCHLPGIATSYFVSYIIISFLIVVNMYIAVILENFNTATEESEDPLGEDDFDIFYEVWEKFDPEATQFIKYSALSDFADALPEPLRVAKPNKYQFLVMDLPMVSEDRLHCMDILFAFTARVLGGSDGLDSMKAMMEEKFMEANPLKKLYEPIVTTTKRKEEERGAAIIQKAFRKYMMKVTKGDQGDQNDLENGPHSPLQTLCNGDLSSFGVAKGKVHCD
T11 sequence (Q14524 whole entry): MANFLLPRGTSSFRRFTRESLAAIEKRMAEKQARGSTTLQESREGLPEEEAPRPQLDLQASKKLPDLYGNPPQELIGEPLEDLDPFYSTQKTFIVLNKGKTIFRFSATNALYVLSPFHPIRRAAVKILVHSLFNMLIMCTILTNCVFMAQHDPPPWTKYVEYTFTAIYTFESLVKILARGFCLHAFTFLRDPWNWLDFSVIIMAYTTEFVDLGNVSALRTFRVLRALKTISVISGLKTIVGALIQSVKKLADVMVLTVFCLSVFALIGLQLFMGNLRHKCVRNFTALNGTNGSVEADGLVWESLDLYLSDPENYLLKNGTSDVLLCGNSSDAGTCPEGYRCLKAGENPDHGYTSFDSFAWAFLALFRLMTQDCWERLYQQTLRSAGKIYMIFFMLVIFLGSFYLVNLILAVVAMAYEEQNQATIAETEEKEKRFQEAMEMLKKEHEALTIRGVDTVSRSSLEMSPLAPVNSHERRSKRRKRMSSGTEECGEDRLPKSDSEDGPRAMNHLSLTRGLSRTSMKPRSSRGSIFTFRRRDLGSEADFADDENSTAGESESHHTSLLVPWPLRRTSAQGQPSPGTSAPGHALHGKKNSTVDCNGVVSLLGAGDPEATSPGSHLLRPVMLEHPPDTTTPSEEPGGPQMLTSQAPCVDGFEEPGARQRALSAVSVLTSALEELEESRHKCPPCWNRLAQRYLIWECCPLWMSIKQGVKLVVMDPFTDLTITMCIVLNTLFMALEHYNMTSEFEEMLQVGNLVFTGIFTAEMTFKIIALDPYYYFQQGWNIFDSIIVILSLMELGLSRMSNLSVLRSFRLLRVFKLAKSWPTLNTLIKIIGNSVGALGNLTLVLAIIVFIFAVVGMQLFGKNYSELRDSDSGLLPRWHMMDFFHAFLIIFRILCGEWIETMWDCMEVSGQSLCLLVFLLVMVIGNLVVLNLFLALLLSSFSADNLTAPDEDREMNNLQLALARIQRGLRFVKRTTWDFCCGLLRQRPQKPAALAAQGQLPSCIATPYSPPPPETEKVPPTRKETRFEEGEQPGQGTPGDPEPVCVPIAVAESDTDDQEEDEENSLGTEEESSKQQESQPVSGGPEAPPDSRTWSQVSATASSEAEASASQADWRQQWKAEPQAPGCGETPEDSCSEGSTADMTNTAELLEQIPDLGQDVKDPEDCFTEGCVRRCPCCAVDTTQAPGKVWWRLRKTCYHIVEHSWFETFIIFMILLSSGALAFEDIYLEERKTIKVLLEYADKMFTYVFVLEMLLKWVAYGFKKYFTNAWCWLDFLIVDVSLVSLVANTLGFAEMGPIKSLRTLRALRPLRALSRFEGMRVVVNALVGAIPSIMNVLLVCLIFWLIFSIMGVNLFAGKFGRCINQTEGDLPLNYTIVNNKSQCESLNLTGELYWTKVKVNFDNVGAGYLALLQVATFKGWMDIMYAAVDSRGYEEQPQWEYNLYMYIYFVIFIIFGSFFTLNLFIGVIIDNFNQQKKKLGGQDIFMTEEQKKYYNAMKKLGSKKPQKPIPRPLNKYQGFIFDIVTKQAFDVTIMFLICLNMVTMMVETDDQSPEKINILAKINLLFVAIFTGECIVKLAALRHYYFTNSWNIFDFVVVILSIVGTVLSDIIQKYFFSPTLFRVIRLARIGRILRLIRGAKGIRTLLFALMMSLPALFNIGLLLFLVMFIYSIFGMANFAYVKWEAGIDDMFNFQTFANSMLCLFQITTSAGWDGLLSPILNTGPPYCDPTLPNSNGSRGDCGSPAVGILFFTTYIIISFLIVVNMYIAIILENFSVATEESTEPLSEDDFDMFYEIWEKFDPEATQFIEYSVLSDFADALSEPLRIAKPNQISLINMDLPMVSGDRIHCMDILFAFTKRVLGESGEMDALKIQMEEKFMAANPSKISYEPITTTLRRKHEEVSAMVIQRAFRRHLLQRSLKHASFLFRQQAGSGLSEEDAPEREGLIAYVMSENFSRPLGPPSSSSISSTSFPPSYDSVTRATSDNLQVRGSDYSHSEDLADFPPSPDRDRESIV

In the case of `CSCC[C@@H]1NC(=O)[C@H](Cc2ccc(O)cc2)NC(=O)[C@H](CCCNC(=N)N)NC(=O)[C@@H](NC(=O)[C@@H](N)CC(=O)O)CSSC[C@@H]2NC(=O)[C@@H]3CSSC[C@@H](C(=O)N[C@@H](C)C(=O)N[C@@H](Cc4c[nH]c5ccccc45)C(=O)N[C@@H](CC(=O)O)C(=O)N[C@@H](Cc4ccccc4)C(=O)N[C@H](C(=O)N[C@@H](Cc4ccccc4)C(=O)N[C@H](C(=O)O)[C@@H](C)O)[C@@H](C)O)NC(=O)[C@H](Cc4ccc(O)cc4)NC(=O)[C@H](CCCCN)NC(=O)[C@H](CCSC)NC(=O)[C@H](CCCCN)NC(=O)[C@H](CCCNC(=N)N)NC(=O)[C@H](CCCCN)NC(=O)[C@H](CSSC[C@H](NC(=O)[C@H](CC(=O)O)NC(=O)CNC(=O)[C@H](Cc4ccccc4)NC1=O)C(=O)N[C@@H](CCC(=O)O)C(=O)N[C@@H](CCCCN)C(=O)N[C@@H](CC(=O)O)C(=O)N[C@@H](CCC(=O)O)C(=O)N[C@@H](CC(=O)O)C(=O)N3)NC(=O)CNC(=O)[C@H](CC(C)C)NC(=O)[C@H](Cc1cnc[nH]1)NC(=O)[C@H](CCCCN)NC2=O` [Pn3a, μ-theraphotoxin-Pn3a], the IC50 on α3 nAChR was > 10000 nM; on hNaV1.1, 37.2 nM; on α7 nAChR, > 10000 nM; on hNaV1.4 it was 145 nM; at mNaV1.7, 4.37 nM; against rKV2.1 it was > 300 nM. For the same molecule, the IC50 at hNaV1.2 is 123 nM; on hNaV1.6 it was 129 nM; on hNaV1.3 it was 209 nM; against hNaV1.8 it was 49900 nM; at hNaV1.9, 2430 nM; at rNaV1.7, 1.48 nM. Besides, the IC50 on hNaV1.5 was 794 nM. Further, in data set [1] (0.3 nmoles intrathecal, control 88 ± 7%, P > 0.05, unpaired t-test, n = 4–9), the “Rotarod % Baseline” value is 91 ± 11%. Besides, in data set [1] (1 nmole intrathecal, rats, data not shown), the motor effect result is “motor impairment was observed”. Also, the pharmacokinetics entry in data set [2] was “poor pharmacokinetics”. Also, in the data set with NaV1.7, the adverse effects entry is “absence of adverse effects”.
